# Assays:
# [1] = Stability of Nanoemulsion Concentrate 3 (α-tocopherol and Vitamin B12 content) by LCMSMS; assay type: physicochemical; conditions: for Stability of α-tocopherol in Nanoemulsion Concentrate 3: average of triplicate
# Protocol: At each time period (0, 7, 28, 60, 120, 150 and 180 days), triplicate samples were analysed for content of α-tocopherol and Vitamin B12.
# (FIGS. 14 and 15, Table 13). Data reported in Table 13 and plotted in FIGS. 14 and 15 are average values of the triplicate measurements taken.
# [2] = Stability of cannabinoid compounds and Vitamin E components in Beverage 2 (AB Red) by LCMSMS; assay type: physicochemical
structure (smiles),measurement,setting,value
Cc1c(C)c2c(c(C)c1O)CC[C@@](C)(CCC[C@H](C)CCC[C@H](C)CCCC(C)C)O2 [α-Tocopherol],Stability of α-tocopherol in Nanoemulsion Concentrate 3,"[1]; Refrigerated (2-4° C.), 0 days",0.25 mg/mL
same,Stability of α-tocopherol in Nanoemulsion Concentrate 3,"[1]; Refrigerated (2-4° C.), 7 days",0.25 mg/mL
same,Stability of α-tocopherol in Nanoemulsion Concentrate 3,"[1]; Refrigerated (2-4° C.), 28 days",0.23 mg/mL
same,Stability of α-tocopherol in Nanoemulsion Concentrate 3,"[1]; Refrigerated (2-4° C.), 60 days",0.26 mg/mL
same,Stability of α-tocopherol in Nanoemulsion Concentrate 3,"[1]; Refrigerated (2-4° C.), 120 days",0.26 mg/mL
same,Stability of α-tocopherol in Nanoemulsion Concentrate 3,"[1]; Refrigerated (2-4° C.), 150 days",0.23 mg/mL
same,Stability of α-tocopherol in Nanoemulsion Concentrate 3,"[1]; Refrigerated (2-4° C.), 180 days",0.27 mg/mL
same,Stability of α-tocopherol in Nanoemulsion Concentrate 3,"[1]; Room Temperature (21-25° C.), 0 days",0.25 mg/mL
same,Stability of α-tocopherol in Nanoemulsion Concentrate 3,"[1]; Room Temperature (21-25° C.), 7 days",0.21 mg/mL
same,Stability of α-tocopherol in Nanoemulsion Concentrate 3,"[1]; Room Temperature (21-25° C.), 28 days",0.22 mg/mL
same,Stability of α-tocopherol in Nanoemulsion Concentrate 3,"[1]; Room Temperature (21-25° C.), 60 days",0.23 mg/mL
same,Stability of α-tocopherol in Nanoemulsion Concentrate 3,"[1]; Room Temperature (21-25° C.), 120 days",0.20 mg/mL
same,Stability of α-tocopherol in Nanoemulsion Concentrate 3,"[1]; Room Temperature (21-25° C.), 150 days",0.21 mg/mL
same,Stability of α-tocopherol in Nanoemulsion Concentrate 3,"[1]; Room Temperature (21-25° C.), 180 days",0.17 mg/mL
same,stability in Nanoemulsion Concentrate 3 (in words),[1]; after 180 days stored at 21-25° C.,some slight degradation
same,stability in Nanoemulsion Concentrate 3 (in words),"[1]; stored at 2-4° C., 180 days",high degree of stability
same,Stability of Vitamin Es in AB Red,"[2]; stored at 8° C., 0 days",25.3 µg/mL
same,Stability of Vitamin Es in AB Red,"[2]; stored at 8° C., 1 days",25.2 µg/mL
same,Stability of Vitamin Es in AB Red,"[2]; stored at 8° C., 2 days",24.9 µg/mL
same,Stability of Vitamin Es in AB Red,"[2]; stored at 8° C., 3 days",25.3 µg/mL
same,Stability of Vitamin Es in AB Red,"[2]; stored at 8° C., 5 days",24.2 µg/mL
same,Stability of Vitamin Es in AB Red,"[2]; stored at 8° C., 8 days",23.7 µg/mL
same,Stability of Vitamin Es in AB Red,"[2]; stored at 8° C., 9 days",24.6 µg/mL
same,Stability of Vitamin Es in AB Red,"[2]; stored at 8° C., 10 days",24.9 µg/mL
same,Stability of Vitamin Es in AB Red,"[2]; stored at 8° C., 11 days",23.9 µg/mL
same,Stability of Vitamin Es in AB Red,"[2]; stored at 8° C., 12 days",24.4 µg/mL
same,Stability of Vitamin Es in AB Red,"[2]; stored at 8° C., 15 days",25.6 µg/mL
same,Stability of Vitamin Es in AB Red,"[2]; stored at 8° C., 16 days",24.5 µg/mL
same,Stability of Vitamin Es in AB Red,"[2]; stored at 8° C., 17 days",23.6 µg/mL
same,Stability of Vitamin Es in AB Red,"[2]; stored at 8° C., 18 days",24.1 µg/mL
same,Stability of Vitamin Es in AB Red,"[2]; stored at 8° C., 19 days",24.0 µg/mL
same,Stability of Vitamin Es in AB Red,"[2]; stored at 8° C., 22 days",25.0 µg/mL
same,Stability of Vitamin Es in AB Red,"[2]; stored at 8° C., 23 days",23.2 µg/mL
same,Stability of Vitamin Es in AB Red,"[2]; stored at 8° C., 24 days",24.3 µg/mL
same,Stability of Vitamin Es in AB Red,"[2]; stored at 8° C., 25 days",23.6 µg/mL
same,Stability of Vitamin Es in AB Red,"[2]; stored at 8° C., 26 days",25.2 µg/mL
same,Stability of Vitamin Es in AB Red,"[2]; stored at 8° C., 29 days",23.5 µg/mL
same,Stability of Vitamin Es in AB Red,"[2]; stored at 8° C., 30 days",24.2 µg/mL
same,Stability of Vitamin Es in AB Red,"[2]; stored at 8° C., 60 days",24.2 µg/mL
same,Stability of Vitamin Es in AB Red,"[2]; stored at 8° C., 90 days",23.1 µg/mL
same,Stability of Vitamin Es in AB Red,"[2]; stored at 8° C., 120 days",25.2 µg/mL
same,Stability of Vitamin Es in AB Red,"[2]; stored at 8° C., 150 days",25.4 µg/mL
same,Stability of Vitamin Es in AB Red,"[2]; stored at 8° C., 180 days",23.6 µg/mL
same,Stability of Vitamin Es in AB Red,"[2]; stored at 8° C., 210 days",23.5 µg/mL
same,Stability of Vitamin Es in AB Red,"[2]; stored at 8° C., 240 days",23.6 µg/mL
same,Stability of Vitamin Es in AB Red,"[2]; stored at 8° C., 270 days",23.6 µg/mL
same,Stability of Vitamin Es in AB Red,"[2]; stored at 8° C., 300 days",23.1 µg/mL
same,Stability of Vitamin Es in AB Red,"[2]; stored at 8° C., 330 days",22.9 µg/mL
same,Stability of Vitamin Es in AB Red,"[2]; stored at 8° C., 360 days",22.4 µg/mL
same,Stability of Vitamin Es in AB Red,"[2]; stored at 8° C., 390 days",23.1 µg/mL
same,Stability of Vitamin Es in AB Red,"[2]; stored at 8° C., 420 days",22.3 µg/mL
same,Stability of Vitamin Es in AB Red,"[2]; stored at 8° C., 450 days",22.7 µg/mL
same,Stability of Vitamin Es in AB Red,"[2]; stored at 8° C., 480 days",21.8 µg/mL
same,Stability of Vitamin Es in AB Red,"[2]; stored at 8° C., 510 days",22.0 µg/mL
same,Stability of Vitamin Es in AB Red,"[2]; stored at 8° C., 540 days",21.8 µg/mL
same,Stability of Vitamin Es in AB Red,"[2]; stored at 8° C., 570 days",21.5 µg/mL
same,Stability of Vitamin Es in AB Red,"[2]; stored at 21-25° C., 0 days",25.3 µg/mL
same,Stability of Vitamin Es in AB Red,"[2]; stored at 21-25° C., 1 days",24.4 µg/mL
same,Stability of Vitamin Es in AB Red,"[2]; stored at 21-25° C., 2 days",24.1 µg/mL
same,Stability of Vitamin Es in AB Red,"[2]; stored at 21-25° C., 3 days",23.8 µg/mL
same,Stability of Vitamin Es in AB Red,"[2]; stored at 21-25° C., 5 days",22.9 µg/mL
same,Stability of Vitamin Es in AB Red,"[2]; stored at 21-25° C., 8 days",24.5 µg/mL
same,Stability of Vitamin Es in AB Red,"[2]; stored at 21-25° C., 9 days",23.3 µg/mL
same,Stability of Vitamin Es in AB Red,"[2]; stored at 21-25° C., 10 days",23.0 µg/mL
same,Stability of Vitamin Es in AB Red,"[2]; stored at 21-25° C., 11 days",24.4 µg/mL
same,Stability of Vitamin Es in AB Red,"[2]; stored at 21-25° C., 12 days",23.4 µg/mL
same,Stability of Vitamin Es in AB Red,"[2]; stored at 21-25° C., 15 days",24.8 µg/mL
same,Stability of Vitamin Es in AB Red,"[2]; stored at 21-25° C., 16 days",25.1 µg/mL
same,Stability of Vitamin Es in AB Red,"[2]; stored at 21-25° C., 17 days",24.4 µg/mL
same,Stability of Vitamin Es in AB Red,"[2]; stored at 21-25° C., 18 days",24.9 µg/mL
same,Stability of Vitamin Es in AB Red,"[2]; stored at 21-25° C., 19 days",25.4 µg/mL
same,Stability of Vitamin Es in AB Red,"[2]; stored at 21-25° C., 22 days",25.4 µg/mL
same,Stability of Vitamin Es in AB Red,"[2]; stored at 21-25° C., 23 days",24.6 µg/mL
same,Stability of Vitamin Es in AB Red,"[2]; stored at 21-25° C., 24 days",23.5 µg/mL
same,Stability of Vitamin Es in AB Red,"[2]; stored at 21-25° C., 25 days",25.5 µg/mL
same,Stability of Vitamin Es in AB Red,"[2]; stored at 21-25° C., 26 days",24.3 µg/mL
same,Stability of Vitamin Es in AB Red,"[2]; stored at 21-25° C., 29 days",24.4 µg/mL
same,Stability of Vitamin Es in AB Red,"[2]; stored at 21-25° C., 30 days",24.6 µg/mL
same,Stability of Vitamin Es in AB Red,"[2]; stored at 21-25° C., 60 days",24.4 µg/mL
same,Stability of Vitamin Es in AB Red,"[2]; stored at 21-25° C., 90 days",24.3 µg/mL
same,Stability of Vitamin Es in AB Red,"[2]; stored at 21-25° C., 120 days",23.7 µg/mL
same,Stability of Vitamin Es in AB Red,"[2]; stored at 21-25° C., 150 days",23.4 µg/mL
same,Stability of Vitamin Es in AB Red,"[2]; stored at 21-25° C., 180 days",23.3 µg/mL
same,Stability of Vitamin Es in AB Red,"[2]; stored at 21-25° C., 210 days",22.7 µg/mL
same,Stability of Vitamin Es in AB Red,"[2]; stored at 21-25° C., 240 days",23.1 µg/mL
same,Stability of Vitamin Es in AB Red,"[2]; stored at 21-25° C., 270 days",23.1 µg/mL
same,Stability of Vitamin Es in AB Red,"[2]; stored at 21-25° C., 300 days",23.5 µg/mL
same,Stability of Vitamin Es in AB Red,"[2]; stored at 21-25° C., 330 days",22.6 µg/mL
same,Stability of Vitamin Es in AB Red,"[2]; stored at 21-25° C., 360 days",21.9 µg/mL
same,Stability of Vitamin Es in AB Red,"[2]; stored at 21-25° C., 390 days",22.7 µg/mL
same,Stability of Vitamin Es in AB Red,"[2]; stored at 21-25° C., 420 days",22.5 µg/mL
same,Stability of Vitamin Es in AB Red,"[2]; stored at 21-25° C., 450 days",22.3 µg/mL
same,Stability of Vitamin Es in AB Red,"[2]; stored at 21-25° C., 480 days",21.6 µg/mL
same,Stability of Vitamin Es in AB Red,"[2]; stored at 21-25° C., 510 days",21.4 µg/mL
same,Stability of Vitamin Es in AB Red,"[2]; stored at 21-25° C., 540 days",21.0 µg/mL
same,Stability of Vitamin Es in AB Red,"[2]; stored at 21-25° C., 570 days",21.4 µg/mL

# — patent US20260130395A1, “Water Dispersible Botanical Compositions” (Aquila Black Limited, priority 2021, published 2026)
